Key:
human P450 1A1 = molecular target: T1, human P450 1A1 (Homo sapiens, UniProt P04798); test: biochemical
T1 sequence (P04798 1-512): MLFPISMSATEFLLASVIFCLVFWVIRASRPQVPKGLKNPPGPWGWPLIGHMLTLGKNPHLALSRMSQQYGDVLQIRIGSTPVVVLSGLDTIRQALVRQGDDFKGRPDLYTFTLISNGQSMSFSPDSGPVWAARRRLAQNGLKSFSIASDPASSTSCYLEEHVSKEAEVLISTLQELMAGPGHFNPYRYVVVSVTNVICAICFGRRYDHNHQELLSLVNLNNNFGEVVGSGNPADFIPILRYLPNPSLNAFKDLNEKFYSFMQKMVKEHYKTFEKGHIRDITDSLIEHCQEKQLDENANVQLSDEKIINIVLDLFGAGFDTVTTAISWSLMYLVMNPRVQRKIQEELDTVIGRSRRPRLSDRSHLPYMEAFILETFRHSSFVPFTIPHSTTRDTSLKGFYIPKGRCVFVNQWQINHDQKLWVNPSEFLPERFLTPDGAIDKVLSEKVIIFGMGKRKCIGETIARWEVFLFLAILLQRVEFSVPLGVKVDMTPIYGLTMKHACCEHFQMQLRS

rat P450 2B1 = molecular target: T2, rat P450 2B1 (Rattus norvegicus, UniProt P00176); test: biochemical; type: biochemical; conditions: for inhibition potency for P450 2B1 (in words): rat P450 2B1, PROD activity
T2 sequence (P00176 1-491): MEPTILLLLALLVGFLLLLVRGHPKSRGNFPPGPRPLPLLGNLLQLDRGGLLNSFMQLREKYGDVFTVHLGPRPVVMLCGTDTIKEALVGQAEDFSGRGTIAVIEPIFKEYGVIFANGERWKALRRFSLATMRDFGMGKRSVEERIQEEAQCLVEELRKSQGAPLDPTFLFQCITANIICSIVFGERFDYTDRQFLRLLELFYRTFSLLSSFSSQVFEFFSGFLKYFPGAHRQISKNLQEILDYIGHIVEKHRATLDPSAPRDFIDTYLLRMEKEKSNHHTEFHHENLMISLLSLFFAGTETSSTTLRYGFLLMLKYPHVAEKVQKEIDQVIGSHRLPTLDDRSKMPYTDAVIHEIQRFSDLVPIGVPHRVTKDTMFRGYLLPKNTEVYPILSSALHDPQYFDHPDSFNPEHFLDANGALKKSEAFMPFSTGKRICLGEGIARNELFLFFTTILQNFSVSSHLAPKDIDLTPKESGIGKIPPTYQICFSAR

human P450 1A2 = molecular target: T3, human P450 1A2 (Homo sapiens, UniProt P05177); test: 7-methoxyresorufin O-demethylation; type: biochemical
T3 sequence (P05177 1-516): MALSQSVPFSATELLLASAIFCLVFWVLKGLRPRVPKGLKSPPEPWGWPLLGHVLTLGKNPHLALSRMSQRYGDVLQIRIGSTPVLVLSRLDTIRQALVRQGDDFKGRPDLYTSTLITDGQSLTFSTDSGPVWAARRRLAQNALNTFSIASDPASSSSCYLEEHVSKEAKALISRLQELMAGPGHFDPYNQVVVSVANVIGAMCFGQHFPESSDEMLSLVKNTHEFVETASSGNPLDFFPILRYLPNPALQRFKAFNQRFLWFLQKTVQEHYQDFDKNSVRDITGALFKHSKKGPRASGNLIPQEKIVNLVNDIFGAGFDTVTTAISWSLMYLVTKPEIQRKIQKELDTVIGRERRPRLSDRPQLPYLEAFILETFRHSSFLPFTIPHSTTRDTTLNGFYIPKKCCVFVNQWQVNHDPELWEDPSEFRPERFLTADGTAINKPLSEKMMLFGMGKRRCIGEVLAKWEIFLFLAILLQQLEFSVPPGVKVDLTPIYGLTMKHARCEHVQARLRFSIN

Row | Compound | IC50 (human P450 1A1) [µM] | IC50 (rat P450 2B1) [µM] | inhibition potency for P450 2B1 (in words) (rat P450 2B1) | IC50 (human P450 1A2) [µM]
1 | COc1ccc2c(c1)[nH]c1ccccc12 [V, 2-methoxy-9H-carbazole] | 35 | 13.3 |  | 
2 | Oc1ccc2c(c1)[nH]c1ccccc12 [2-hydroxycarbazole, 2-Hydroxycarbazole, reference compound] | 70.5 | 41.6 |  | 59.7
3 | C#CCOc1ccc2c(c1)[nH]c1ccccc12 [VIII, 2-(prop-2-yn-1-yloxy)-9H-carbazole] | 8.65 | 5.26 |  | 
4 | CCOc1ccc2c(c1)[nH]c1ccccc12 [VI, 2-ethoxy-9H-carbazole] | 15.6 | 8.43 |  | 
5 | CCCOc1ccc2c(c1)[nH]c1ccccc12 [VII, 2-propoxy-9H-carbazole] | 26.4 | 10.6 |  | 

Further lines, results first:

Row | IC50 (human P450 1A1) [µM] | IC50 (rat P450 2B1) [µM] | inhibition potency for P450 2B1 (in words) (rat P450 2B1) | IC50 (human P450 1A2) [µM] | Compound
6 | 10.3 | 1.14 | good inhibition potency |  | CCOc1cccc2[nH]c3ccccc3c12 [II, 4-ethoxy-9H-carbazole]
7 | 8.73 | 0.659 | good inhibition potency |  | CCCOc1cccc2[nH]c3ccccc3c12 [III, 4-propoxy-9H-carbazole]
8 | 21.5 | 1.83 | good inhibition potency |  | COc1cccc2[nH]c3ccccc3c12 [I, 4-methoxy-9H-carbazole]
9 | 36.8 | > 100 |  | 7.33 | Oc1cccc2[nH]c3ccccc3c12 [4-hydroxycarbazole, 4-Hydroxycarbazole, reference compound]
10 | 6.64 | 1.78 | good inhibition potency |  | C#CCOc1cccc2[nH]c3ccccc3c12 [IV, 4-(prop-2-yn-1-yloxy)-9H-carbazole]

Reference: article PMC4286351 (Journal of undergraduate chemistry research, 2013)
